Experiment: mn = molality of the nth substance listed, in mol/kg
Conditions: 99 kPa, Liquid, Alternating current cell with electrodes

CCCCCCCCCCCC[N+](C)(C)C.[Br-] [dodecyltrimethylammonium bromide] + O
electrical conductivity [S/m]
Conditions | 288.15 K | 293.15 K | 298.15 K | 303.15 K
m1 = 0.0015 | 0.0137 | 0.014 | 0.0143 | 0.0144
m1 = 0.003 | 0.0265 | 0.027 | 0.0273 | 0.0278
m1 = 0.0045 | 0.039 | 0.0397 | 0.0412 | 0.0413
m1 = 0.0059 | 0.05 | 0.052 | 0.053 | 0.0545
m1 = 0.0073 | 0.061 | 0.0635 | 0.0659 | 0.067
m1 = 0.0087 | 0.0725 | 0.0748 | 0.0769 | 0.079
m1 = 0.0101 | 0.0837 | 0.086 | 0.089 | 0.0895
m1 = 0.0116 | 0.095 | 0.0975 | 0.1 | 0.101
m1 = 0.013 | 0.106 | 0.108 | 0.11 | 0.112
m1 = 0.0144 | 0.115 | 0.118 | 0.12 | 0.122
m1 = 0.0157 | 0.124 | 0.126 | 0.128 | –
m1 = 0.017 | 0.129 | 0.131 | 0.132 | –
m1 = 0.0184 | 0.132 | 0.133 | 0.134 | –
m1 = 0.0197 | 0.135 | 0.136 | 0.136 | –
m1 = 0.021 | 0.137 | 0.138 | 0.139 | –
m1 = 0.0223 | 0.139 | 0.14 | 0.142 | –
m1 = 0.0236 | 0.141 | 0.142 | 0.143 | –
m1 = 0.0249 | 0.143 | 0.144 | 0.146 | –
m1 = 0.0274 | 0.146 | 0.149 | 0.15 | –
m1 = 0.0286 | 0.148 | 0.151 | 0.153 | –
m1 = 0.0298 | 0.15 | 0.154 | 0.156 | –

Reference: the NIST ThermoML archive (doi:10.1016/j.jct.2014.07.003)
